Take `CCCCCN1C(=O)CN=C(c2ccccc2)c2ccccc21`: the melting point – broadly, the temperature of the solid-liquid transition – lay within 93 to 95 °C.
In the case of `CC(=O)Oc1cc(OC(C)=O)c2c(c1)OC(c1ccc(OC(C)=O)c(OC(C)=O)c1)CC2` (stereo not given) it was 143 to 144 °C; in that of `COc1cc(S(=O)(=O)C(c2cc(F)ccc2F)c2cc(N)ncc2Cl)ccc1Cl` (stereo not given), 198 to 200 °C.
The compound `C=C(C)Cc1c(O)cc(C)c(NC=O)c1C` registered a melting point of 207 to 209 °C.
The compound `O=[N+]([O-])c1ccc(CCn2cccn2)cc1` displayed a melting point of 92 to 93 °C.
`COc1ccc(CS(=O)(=O)c2cc3ccccc3oc2=O)cc1` had a melting point of 194 to 195 °C.
With `CC(C)(C)CC(=O)Nc1ccc2oc3c(c2c1)CCCCC3`, the melting point is 182 to 183 °C.
In turn, `CC(=O)NC(CO)C(O)c1ccc(C=Cc2csc3ccccc23)s1` (stereo not given) displayed a melting point of 144 to 145 °C.
Compound `CC(C)(C)C(=O)C(Br)C(c1ccc(Cl)cc1Cl)S(=O)(=O)c1ccccc1` (stereo not given) yielded a melting point of 135 to 136 °C.
`COc1cc(C(C)C)c2c(c1)S(=O)(=O)N(COC(=O)c1sccc1C)C2=O` returned a melting point of 132 to 134 °C.
On to `N#Cc1ccccc1OCCCN1CCC(NC(=O)Cc2ccccc2)CC1`, for which the melting point was in the range of 105 to 107 °C.
In the case of `COc1ccc(N2CCN(c3c(C)c(C)c4c(c3C)CC(C)(C)O4)CC2)c(OC)c1` it was 154 to 156 °C.
`Cc1ccc2c(=O)c(C(=O)O)cn(CCOC=O)c2n1` registered a melting point of 213 to 214 °C.
Compound `Fc1ccc(Nc2nc(NC3CCOCC3)nc(OCC(F)(F)F)n2)cc1Cl` displayed a melting point of 190 to 191 °C.
Turning to `CCC(COC)NC(=O)C(Cc1ccc(OCc2ccccc2)cc1)NC(=O)C(CC(C)C)N(C)Cc1ccc(N(C)C)cc1` (stereo not given), the melting point was 109 to 112 °C.
In the case of `O=C(NCc1nccs1)c1ccnc(N2CCN(Cc3ccc(F)cc3)C2=O)c1` it was 123 to 125 °C; in that of `Cc1cc(OCc2ccccc2)ccc1CC#N`, 51 to 52 °C.
As to `Nc1c2c(nc3ccccc13)-c1ccccc1SC2`, the melting point was in the range of 211 to 212 °C.
The result for `CC(=O)NC[C@H]1CN(c2ccc(N3CCC(O)(CC#N)CC3)c(F)c2)C(=O)O1` reads 162 to 164 °C.
For `CC(C)(C)OC(=O)N1CCC2(CC1)SCc1ccccc12`, the melting point lay within 131 to 132 °C.
Compound `CCOC(=O)C1=C(N(C)C)N=C(C)C(C(=O)OCC)C1c1ccccc1C#N` (stereo not given) yielded a melting point of 129 °C.
The result for `CC=CC=C1SC(=S)N(CC(=O)O)C1=O` reads 216 to 218 °C; that for `CC(CNS(=O)(=O)c1ccccc1)c1ccc(OCC(=O)O)c(F)c1` (stereo not given), 49 to 51 °C.
In the case of `COc1ccc(-c2cn(C)cc(-c3ccccc3)c2=O)cc1` it was 165 °C.
In the case of `Clc1ncc(-c2ccco2)cn1` it was 134 to 136 °C.
In turn, `CC1(C)OC(=O)Nc2ccc(-c3coc(C=NO)c3)cc21` had a melting point of 236 to 238 °C.
For the compound `O=C(Nc1ccc(-n2nc(C(F)(F)F)cc2C(F)(F)F)cc1)c1cncc(Br)c1`, the melting point is 155 to 157 °C.
`COC(=O)c1ccc2cc([C@H]3OC[C@@H](S[C@H](C)[C@](O)(Cn4cncn4)c4ccc(F)cc4F)CO3)ccc2c1` registered a melting point of 153 °C.
As for `O=c1[nH]cnc(C(F)(F)F)c1Cl`, the melting point is 191 to 192 °C.
For `Cc1c(SCCN2CCOCC2)ccnc1CSc1nc2ccccc2n1CCO`, the melting point fell in the range of 141 to 143 °C.
In the case of `Cc1c(C)c2c(c(C)c1NC(=O)c1ccc(F)cc1)C(c1ccc(F)cc1)C(C)(C)O2` (stereo not given) it was 140 to 142 °C; in that of `CCCCc1nc2ccccn2c(=O)c1-c1ccc2[nH]ccc2c1`, 132 to 135 °C.
On to `NC(=O)NCCNc1n[nH]c2ncnc(Nc3cccc(Cl)c3)c12`, for which the melting point lay in the range of 212 to 214 °C.
Consider `CC(C)(C)c1cc(C(O)C#Cc2ccc(C(=O)O)cc2)ccc1N1CCCC1` (stereo not given), for which the melting point is 150 °C.
The result for `CC1CC2C(C(O)CC3(C)C2CCC3(O)C(=O)COCc2ccccc2[N+](=O)[O-])C2(C)C=CC(=O)C=C12` (stereo not given) reads 116 to 119 °C.

The record behind these values is a melting point compilation (Tetko et al.; mined from patent text by program, amines drawn as free bases though some values may be those of a salt).
